“Also recorded” adds a separate entry of the source.
Legend:
PDK1 = target: T1, PDK1 (Homo sapiens, UniProt O15530); test: ADP-GLO kinase inhibitory assay, PDK1; assay type: biochemical
T1 sequence (O15530 1-556): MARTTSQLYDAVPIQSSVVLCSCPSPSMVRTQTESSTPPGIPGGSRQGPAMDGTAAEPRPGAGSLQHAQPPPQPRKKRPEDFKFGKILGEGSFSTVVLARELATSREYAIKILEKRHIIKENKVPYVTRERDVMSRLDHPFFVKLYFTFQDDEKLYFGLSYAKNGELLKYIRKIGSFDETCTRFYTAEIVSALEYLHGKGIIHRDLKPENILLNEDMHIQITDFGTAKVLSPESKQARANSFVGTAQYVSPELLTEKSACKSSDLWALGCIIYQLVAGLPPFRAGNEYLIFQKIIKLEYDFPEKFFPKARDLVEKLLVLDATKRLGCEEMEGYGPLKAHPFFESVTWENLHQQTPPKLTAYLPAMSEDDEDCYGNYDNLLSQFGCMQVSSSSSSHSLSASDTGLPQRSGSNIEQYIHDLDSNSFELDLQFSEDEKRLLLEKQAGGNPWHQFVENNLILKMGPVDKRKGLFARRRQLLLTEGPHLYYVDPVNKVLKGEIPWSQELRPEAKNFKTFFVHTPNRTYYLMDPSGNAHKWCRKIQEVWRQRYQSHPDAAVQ
Experimental: (§1) Based on the aforementioned results for the potential mechanism of action, the kinase inhibitory profile of compounds C6 and C11 were screened at two dose concentration of 10 and 1 µM over a panel of 15 kinases, and the kinase inhibitory activities are listed in supporting information (Supplementary Table S1).
(§2) The kinase inhibitory profile of compounds C6 and C11 were screened at two dose concentration of 10 and 1 µM over a panel of 15 kinases, and each assay was repeated twice. All the inhibitory assays were carried out through kinase profiling services provided by HY Biotech (Chinese), in which ADP-GLO kinase assays were used.
as §2, with “10 µM” for “10”

[1] = test system: SGC-7901 (human gastric cancer cell line); test: MTT in vitro cytotoxicity assay, SGC-7901; assay type: cell-based; conditions: for IC50: SGC-7901, Table 3, MTT, mean ± S.D.; for inhibition at 100 µM: SGC-7901, at 100 µM, read-out: Cell growth inhibition (%) SGC-7901
Experimental: (§3) The lead molecules A2 and all newly prepared diarylamine derivatives B1-13 and C1-11 were evaluated for their in vitro cytotoxic effects against SGC-7901, A875, HepG2 and MARC145 cell lines by the classical MTT [3-(4,5-dimethylthiazol-2-yl)-2,5-diphenyl tetrazolium bromide] assay ([Alley et al., 1988]; [Ke et al., 2012]; [Shi et al., 2012]; [Yu et al., 2015]; [Ke et al., 2019]; [Xu et al., 2019]; [Huang et al., 2021]) using 5-FU (5-Fluorouracil) as a control.
(§4) The cytotoxicity of target compounds was determined with MTT assay ([Alley et al., 1988]; [Ke et al., 2012]; [Shi et al., 2012]; [Yu et al., 2015]; [Ke et al., 2019]; [Xu et al., 2019]; [Huang et al., 2021]). SGC-7901, A875, HepG2 and MARC145 cell lines were obtained from Hubei Biopesticide Engineering Research Centre. All data of the experiment were analyzed with SPSS software, and all assay were performed in triplicate on three independent experiments, and measurement data were expressed as the mean ± S.D.
(§5) The in vitro cytotoxicity of the synthesized compounds against different cell lines (SGC-7901, A875, HepG2 and MARC145) was measured with MTT assay. All the data of the experiment were analyzed with SPSS software, and the 50% inhibitory concentrations (IC50) of each compound for the different cell lines were determined. A control was run for each test, and all assays were performed in triplicate on three independent experiments, and measurement data were expressed as the mean ± S.D.

[2] = test system: SGC-7901, A875, HepG2 and MARC145 cell lines; test: MTT in vitro cytotoxicity assay, statements over the whole cell panel; assay type: cell-based; conditions: for cytotoxic effect / inhibition activity in words: IC50-based judgement, compared with 5-FU; for inhibition activity in preliminary screening, in words: at 100 µM, inhibition rate higher than control 5-FU
Experimental: as §3, §4, §5

A875 cells = test: Annexin V-FITC/PI dual staining flow cytometry; assay type: cell-based, human; conditions: for apoptotic rate: 24 h, 2×IC50 concentration, FITC(+)PI(−); for apoptosis induction, in words: 24 h treatment
Experimental: Apoptosis induction is one of the important modes of action for antitumor drugs.
Quantitative analysis of apoptotic and necrotic cell death induced by potential molecules was investigated using Annexin V-FITC/PI dual staining assay ([Yu et al., 2015]; [Huang et al., 2021]).
Quantitative analysis of apoptotic and necrotic cell death induced by the test compounds was performed by Annexin V-FITC apoptosis detection kit according to the manufacturer’s instructions (Abcam). Briefly, 2×10^5 A875 cells were seeded in 6-well plates and grown overnight. […] Cells treated with 0.1% DMSO were served as solvent control. Following treatment cells were harvested, washed twice with ice-cold PBS and resuspended in binding buffer. Then the cells were stained by adding 5 µl of Annexin V-FITC and 5 µl of propidium iodide, sit for 5 min at room temperature in the dark and analyzed by flow cytometry (Beckman coulter FC500).

[3] = MTT in vitro cytotoxicity assay, MARC145; assay type: cell-based, African green monkey; conditions: African green monkey, MARC145 cells (kidney cell line, subclone of MA-104), Table 3; MTT; mean ± S.D.
Experimental: as §3, §4, §5

[4] = test system: MARC145 (subclone of African green monkey kidney cell line MA-104); test: MTT in vitro cytotoxicity assay, MARC145; assay type: cell-based; conditions: at 100 µM; for inhibition at 100 µM: Chlorocebus sabaeus, MARC145, read-out: Cell growth inhibition (%) MARC145
Experimental: as §3, §4, §5

[5] = test system: HepG2 (human hepatocellular liver carcinoma cell line); test: MTT in vitro cytotoxicity assay, HepG2; assay type: cell-based; conditions: for IC50: HepG2, Table 3, MTT, mean ± S.D.; for inhibition at 100 µM: HepG2, at 100 µM, read-out: Cell growth inhibition (%) HepG2
Experimental: as §3, §4, §5

CAMK2 alpha = CAMK2 alpha (Homo sapiens, UniProt Q9UQM7); test: ADP-GLO kinase inhibitory assay, CAMK2 alpha; assay type: biochemical
Experimental: as §1, §2
as §2, with “10 µM” for “10”

ERK1 = ERK1 (Homo sapiens, UniProt P27361); test: ADP-GLO kinase inhibitory assay, ERK1; assay type: biochemical
Experimental: as §1, §2
as §2, with “10 µM” for “10”

Sequence of CAMK2 alpha (Q9UQM7 whole entry): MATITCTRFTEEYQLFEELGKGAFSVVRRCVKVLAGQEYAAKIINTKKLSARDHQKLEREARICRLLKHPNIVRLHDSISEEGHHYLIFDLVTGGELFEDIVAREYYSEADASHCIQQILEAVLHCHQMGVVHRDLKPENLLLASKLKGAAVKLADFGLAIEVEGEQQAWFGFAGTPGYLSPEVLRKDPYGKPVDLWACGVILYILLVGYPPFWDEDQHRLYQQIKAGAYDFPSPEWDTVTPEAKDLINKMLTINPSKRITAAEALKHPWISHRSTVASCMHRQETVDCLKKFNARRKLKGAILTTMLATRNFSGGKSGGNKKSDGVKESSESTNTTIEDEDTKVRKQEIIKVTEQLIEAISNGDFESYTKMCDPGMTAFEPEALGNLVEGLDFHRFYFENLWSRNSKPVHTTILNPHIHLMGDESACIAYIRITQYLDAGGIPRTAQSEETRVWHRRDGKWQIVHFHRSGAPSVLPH
Sequence of ERK1 (P27361 whole entry, species assumed): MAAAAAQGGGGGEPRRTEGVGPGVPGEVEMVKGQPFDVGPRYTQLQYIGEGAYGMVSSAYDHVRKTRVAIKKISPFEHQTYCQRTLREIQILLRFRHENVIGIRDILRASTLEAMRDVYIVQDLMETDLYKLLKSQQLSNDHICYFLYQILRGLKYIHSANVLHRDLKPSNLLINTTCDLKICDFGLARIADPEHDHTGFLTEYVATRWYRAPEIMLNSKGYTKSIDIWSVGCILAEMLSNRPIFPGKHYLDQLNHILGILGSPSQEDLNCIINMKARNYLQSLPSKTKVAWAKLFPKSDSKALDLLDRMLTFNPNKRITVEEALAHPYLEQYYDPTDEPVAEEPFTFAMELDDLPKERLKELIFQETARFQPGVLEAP

Row | Compound | inhibition at 1 µM (PDK1) | inhibition at 10 µM (PDK1) | IC50 [1] | inhibition at 100 µM [1] | cytotoxic effect / inhibition activity in words [2] | dose-response analysis of cell growth inhibition, in words ([2]; SGC-7901, A875, HepG2, MARC145) | IC50 ([2]; SGC-7901, A875, HepG2, MARC145, read-out: IC50 values, span over the tested cell lines) | inhibition activity in preliminary screening, in words [2] | apoptotic rate (A875 cells) | apoptosis induction, in words (A875 cells) | IC50 [3] | inhibition at 100 µM [4] | IC50 [5] | inhibition at 100 µM [5] | inhibition at 1 µM (CAMK2 alpha) | inhibition at 10 µM (CAMK2 alpha) | inhibition at 1 µM (ERK1) | inhibition at 10 µM (ERK1) | inhibition on normal cell lines (MARC145), in words [4]
1 | O=C(Nc1cccc(C(F)(F)F)c1)c1cccnc1Nc1cccc(C(F)(F)F)c1 [C6, N-(3-(Trifluoromethyl)phenyl)-2-((3-(trifluoromethyl)phenyl)amino)nicotinamide] | 10.3% | 10.1% | 5.53 ± 0.82 µM | 90.5 ± 3.8% | good cytotoxic effect; also recorded: higher inhibition activities compared to the control 5-FU | significant concentration dependence | 5.53 to 12.8 µM | good inhibition activity | 12% | induced apoptotic changes | 9.72 ± 2.75 µM | 89.8 ± 3.4% | 9.99 ± 1.58 µM | 91.3 ± 3.7% | 5.12% | 37.8% | 6.76% | -6.1% | –
2 | O=C(Nc1ccc(Cl)nc1)c1cccnc1Nc1cccc(C(F)(F)F)c1 [C11, N-(6-Chloropyridin-3-yl)-2-((3-(trifluoromethyl)phenyl)amino)nicotinamide] | 20.3% | 10.9% | 9.13 ± 3.52 µM | 85.6 ± 4.3% | good cytotoxic effect; also recorded: higher inhibition activities compared to the control 5-FU | significant concentration dependence | – | good inhibition activity | 27% | induced apoptotic changes | > 102 µM | 27.1 ± 3.6% | 10.2 ± 2.04 µM | 85.7 ± 2.4% | 5.65% | -1.53% | 18.2% | 3.07% | low inhibition

— article PMC9315260, “Diarylamine-Guided Carboxamide Derivatives: Synthesis, Biological Evaluation, and Potential Mechanism of Action” (Frontiers in Chemistry, 2022)
